In ChEMBL document CHEMBL5046303, “Discovery of TAK-925 as a Potent, Selective, and Brain-Penetrant Orexin 2 Receptor Agonist” (ACS Med Chem Lett, 2022):
The source made the active and inactive calls. No cut-off for these calls is given here.

Legend:
Orexin receptor type 2 = biological target: T1, Orexin receptor type 2 (Homo sapiens, UniProt O43614); assay: Agonist activity at human OX2R expressed in CHO-K1 cells by FLIPR calcium flux assay; format: functional, cell-based
T1 sequence (O43614 whole entry): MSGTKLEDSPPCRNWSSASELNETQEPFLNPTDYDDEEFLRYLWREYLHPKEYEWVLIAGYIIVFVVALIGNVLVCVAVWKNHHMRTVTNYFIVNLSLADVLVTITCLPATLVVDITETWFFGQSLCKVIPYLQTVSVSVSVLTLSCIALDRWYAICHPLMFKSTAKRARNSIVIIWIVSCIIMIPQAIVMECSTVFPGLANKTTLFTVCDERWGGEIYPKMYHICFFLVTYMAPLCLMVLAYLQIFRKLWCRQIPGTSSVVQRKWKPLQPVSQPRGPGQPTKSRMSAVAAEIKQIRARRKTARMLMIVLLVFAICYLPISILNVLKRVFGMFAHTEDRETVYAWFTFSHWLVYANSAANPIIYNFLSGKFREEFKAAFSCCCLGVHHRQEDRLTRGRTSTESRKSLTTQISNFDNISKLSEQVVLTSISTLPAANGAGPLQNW

Mus musculus = assay: Sleep modulation activity in ICR mouse assessed as increase in time spent in wakefulness at 3 mg/kg, sc administered at zeitgeber time 5 measured after 3 hrs post injection; format: functional, organism-based

Row | EC50 (Orexin receptor type 2) | Compound | Activity (Mus musculus)
1 | 180 pM | CC[C@H](C)[C@H](NC(=O)CNC(=O)[C@H](C)NC(=O)[C@H](C)NC(=O)[C@H](Cc1cnc[nH]1)NC(=O)[C@H](CC(N)=O)NC(=O)CNC(=O)[C@H](C)NC(=O)CNC(=O)[C@H](Cc1cnc[nH]1)NC(=O)[C@H](CC(C)C)NC(=O)[C@H](CC(C)C)NC(=O)[C@H](CCC(=O)O)NC(=O)[C@H](Cc1ccc(O)cc1)NC(=O)[C@H](CC(C)C)NC(=O)[C@H](CCCNC(=N)N)NC(=O)[C@H](CS)NC(=O)[C@H](CO)NC(=O)[C@H](CS)NC(=O)[C@@H](NC(=O)[C@H](CCCCN)NC(=O)[C@H](CCC(N)=O)NC(=O)[C@H](CCCNC(=N)N)NC(=O)[C@H](CS)NC(=O)[C@H](CS)NC(=O)[C@H](CC(=O)O)NC(=O)[C@@H]1CCCN1C(=O)[C@H](CC(C)C)NC(=O)[C@@H]1CCCN1C(=O)[C@@H]1CCC(=O)N1)[C@@H](C)O)C(=O)N[C@@H](CC(C)C)C(=O)N[C@H](C(=O)N[C@@H](CC(C)C)C(=O)O)[C@@H](C)O | –
2 | – | COC(=O)N1CCC[C@H](NS(C)(=O)=O)[C@@H]1CO[C@H]1CC[C@@H](c2ccccc2)CC1 | Active
